Data reported in patent US8846746B2, “Pyrazole compound and pharmaceutical use thereof” (Japan Tobacco Inc., priority 2011, dated 2014).
pIC50: −log10 of the molar value.

These molecules were tested against human SGLT1 (Homo sapiens (Human), UniProt P13866) (assay: SGLT1 inhibitory activity: 14C-AMG uptake into CHO-K1 cell line stably expressing human SGLT1). Settings: 14C-AMG uptake, CHO-K1 cells expressing human SGLT1.
Type: cell-based
In short: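 CHO-K1 cells stably expressing human SGLT1 were pre-incubated 20 min in Na(−) buffer (pH 7.4). Test compound in Na(+) buffer with BSA was added with ¹⁴C-AMG (8 kBq) plus unlabelled AMG (2 mM in the added solution) for 1 h at 37 °C.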

Chain of human SGLT1 (P13866 whole entry): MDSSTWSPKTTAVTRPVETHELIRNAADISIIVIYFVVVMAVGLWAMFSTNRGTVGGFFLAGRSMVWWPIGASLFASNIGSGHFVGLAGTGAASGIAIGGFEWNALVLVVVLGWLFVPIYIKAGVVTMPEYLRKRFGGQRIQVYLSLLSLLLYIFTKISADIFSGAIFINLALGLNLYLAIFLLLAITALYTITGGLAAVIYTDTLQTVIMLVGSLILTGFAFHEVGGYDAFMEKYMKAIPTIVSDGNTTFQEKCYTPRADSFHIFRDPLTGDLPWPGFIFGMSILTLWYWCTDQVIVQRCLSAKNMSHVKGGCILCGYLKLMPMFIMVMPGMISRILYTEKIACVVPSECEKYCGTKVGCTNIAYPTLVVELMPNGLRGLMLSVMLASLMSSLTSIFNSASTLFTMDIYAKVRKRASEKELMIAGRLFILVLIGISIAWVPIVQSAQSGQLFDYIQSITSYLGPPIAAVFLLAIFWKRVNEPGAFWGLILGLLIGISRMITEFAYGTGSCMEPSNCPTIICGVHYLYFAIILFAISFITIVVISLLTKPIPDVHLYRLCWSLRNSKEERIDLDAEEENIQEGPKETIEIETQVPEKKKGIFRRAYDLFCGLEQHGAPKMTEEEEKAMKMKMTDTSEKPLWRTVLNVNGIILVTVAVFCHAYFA

Point of comparison: `O=C1C[C@@H](C(=O)Nc2cc(-c3cccc(OC(F)(F)F)c3)n(-c3ccccc3F)n2)CN1` [Example 131], pIC50 8.20. Against it:
- CCC(F)(F)c1cccc(-c2cc(NC(=O)[C@H]3CNC(=O)C3)nn2-c2ccccc2)c1 [Example 72] — within 0.2 log units, 8.33
- C[C@H]1C(=O)NC[C@@H]1C(=O)Nc1cc(-c2cccc(OC(F)(F)F)c2)n(CCC2CCOCC2)n1 [Example 232] — 0.71 log units lower, 7.49
- O=C1C[C@@H](C(=O)Nc2cc(-c3cccc(OC(F)(F)F)c3)n(-c3ccc(F)cc3F)n2)CN1 [Example 183] — 3.50 log units lower, 4.70
- O=C1C[C@H](C(=O)Nc2cc(-c3cccc(Cl)c3)n(-c3ccccc3)n2)CN1 [Example 39] — 1.74 log units lower, 6.46
- CCC(F)(F)c1cccc(-c2cc(NC(=O)[C@H]3CNC(=O)[C@@H]3C)nn2C2CCOCC2)c1 [Example 179] — 0.48 log units lower, 7.72
- C[C@H]1C(=O)NC[C@@H]1C(=O)Nc1cc(-c2cccc(OC(F)(F)F)c2)n(-c2ccccc2Cl)n1 [Example 193] — 0.69 log units higher, 8.89
- O=C1C[C@H](C(=O)Nc2cc(-c3cccc(OC(F)(F)F)c3)n(-c3ccccc3)n2)CN1 [Example 29] — 0.58 log units lower, 7.62
- CCCc1cccc(-c2cc(NC(=O)C3COC(=O)C3)nn2-c2ccccc2)c1 (racemic) [Example 7, 5-oxotetrahydrofuran-3-carboxylic acid[1-phenyl-5-(3-propylphenyl)-1H-pyrazol-3-yl]amide] — 0.72 log units lower, 7.48
- CCCc1cccc(-c2cc(NC(=O)C3CC(=O)NC3C)nn2-c2ccccc2)c1 (single isomer, unassigned) [Example 19] — 0.72 log units lower, 7.48
- C[C@H]1C(=O)NC[C@@H]1C(=O)Nc1cc(-c2cccc(OC(F)(F)F)c2)n(-c2ccccc2)n1 [Example 1, (3R,4R)-4-methyl-5-oxopyrrolidine-3-carboxylic acid[1-phenyl-5-(3-trifluoromethoxyphenyl)-1H-pyrazol-3-yl]amide] — 0.20 log units higher, 8.40
- Cc1ccccc1-n1nc(NC(=O)[C@H]2CNC(=O)C2)cc1-c1cccc(C(F)(F)F)c1 [Example 224] — the same, 8.20
- CC(C)(C)c1cccc(-c2cc(NC(=O)C3CCC(=O)NC3)nn2C2CCOCC2)c1 (single isomer, unassigned) [Example 186] — 1.08 log units lower, 7.12
- CCCc1cccc(-c2cc(NC(=O)[C@H]3CNC(=O)C3)nn2CCC2CCCC2)c1 [Example 137] — 0.35 log units lower, 7.85
- Cc1cccc(-n2nc(NC(=O)[C@H]3CNC(=O)C3)cc2-c2cccc(C(C)(C)C)c2)c1 [Example 127] — 0.65 log units higher, 8.85
- O=C1C[C@@H](C(=O)Nc2cc(-c3cccc(OC(F)(F)F)c3)n(-c3cccc(F)c3)n2)CN1 [Example 157] — 0.31 log units lower, 7.89
- CCC(F)(F)c1cccc(-c2cc(NC(=O)[C@H]3CNC(=O)C3)nn2-c2cccc(F)c2)c1 [Example 181] — within 0.2 log units, 8.37
- CC1(C)CCCC(c2cc(NC(=O)[C@H]3CNC(=O)C3)nn2-c2ccccc2)C1 (single isomer, unassigned) [Example 88] — 0.43 log units lower, 7.77
- CCCc1cccc(-c2cc(NC(=O)[C@H]3CNC(=O)C3)nn2-c2cccc(Cl)c2)c1 [Example 95] — 0.42 log units higher, 8.62
- CCCc1cccc(-c2cc(NC(=O)[C@H]3CNC(=O)C3)nn2-c2ccccc2)c1 [Example 22] — within 0.2 log units, 8.33
- COC(C)(C)c1cccc(-c2cc(NC(=O)[C@@H]3CNC(=O)C3)nn2-c2ccccc2)c1 [Example 83] — 0.24 log units lower, 7.96
- CC(C)(C)c1cccc(-c2cc(NC(=O)[C@H]3CNC(=O)C3)nn2CCC2CCCCC2)c1 [Example 129] — 0.65 log units lower, 7.55

Same assay, conditions: 14C-AMG uptake, CHO-K1 cells stably expressing human SGLT1

Point of comparison: `CCCOc1cccc(-n2nc(NC(=O)[C@@H]3CNC(=O)C3)cc2-c2cccc(CCC)c2)c1` [Example 380], pIC50 8.17. Against it:
- O=C1NC[C@H](C(=O)Nc2cc(-c3cccc(COCCC(F)(F)F)c3)n(-c3ccccc3)n2)O1 [Example 337] — 0.68 log units lower, 7.49
- CC(OCc1cccc(-c2cc(NC(=O)[C@H]3CNC(=O)C3)nn2-c2ccccc2)c1)(C(F)(F)F)C(F)(F)F [Example 364] — within 0.2 log units, 8.08
- COC(C)(C)c1cccc(-c2cc(NC(=O)[C@H]3CNC(=O)N3)nn2-c2ccccc2)c1 [Example 269] — 1.13 log units lower, 7.04
- CC(C)Oc1cccc(-n2nc(NC(=O)[C@@H]3CNC(=O)C3)cc2-c2cccc(COCC(F)(F)F)c2)c1 [Example 449] — 0.47 log units higher, 8.64
- CCCc1cccc(-c2cc(NC(=O)[C@@H]3CNC(=O)C3)nn2-c2cccc(OC(C)C)c2)c1 [Example 344] — 0.30 log units higher, 8.47
- O=C1CCC(C(=O)Nc2cc(-c3cccc(COCC(F)(F)F)c3)n(-c3ccccc3)n2)CN1 (single isomer, unassigned) [Example 560] — 0.55 log units lower, 7.62
- CC(C)(C)CCOc1cccc(-c2cc(NC(=O)[C@@H]3CNC(=O)C3)nn2-c2ccccc2)c1 [Example 294] — 0.56 log units lower, 7.61
- CCOc1ccc(F)c(-n2nc(NC(=O)[C@@H]3CNC(=O)C3)cc2-c2cccc(COCC(F)(F)F)c2)c1 [Example 460] — 0.51 log units higher, 8.68
- CCCc1cccc(-c2cc(NC(=O)[C@@H]3CNC(=O)C3)nn2-c2cccc(OCC(F)(F)F)c2)c1 [Example 387] — 0.27 log units lower, 7.90
- CC(C)(C)C(=O)c1cccc(-c2cc(NC(=O)[C@@H]3CNC(=O)C3)nn2-c2ccccc2)c1 [Example 356] — 0.21 log units lower, 7.96
- CCOc1cccc(-n2nc(NC(=O)[C@@H]3CNC(=O)C3)cc2-c2cccc(CO[C@H](C)C(F)(F)F)c2)c1 [Example 452] — 0.60 log units higher, 8.77
- COc1cccc(-n2nc(NC(=O)[C@@H]3CNC(=O)C3)cc2-c2cccc(COCC(F)(F)F)c2)c1 [Example 446] — within 0.2 log units, 8.25
- C[C@@H](OCc1cccc(-c2cc(NC(=O)[C@@H]3CNC(=O)C3)nn2-c2cccc(F)c2)c1)C(F)(F)F [Example 469] — within 0.2 log units, 8.28
- COc1ccc(F)c(-n2nc(NC(=O)[C@@H]3CNC(=O)C3)cc2-c2cccc(OC(F)(F)F)c2)c1 [Example 515] — 0.25 log units lower, 7.92
- CC(C)Oc1cc(-n2nc(NC(=O)[C@@H]3CNC(=O)C3)cc2-c2cccc(OC(F)(F)F)c2)ccc1F [Example 422] — 0.32 log units lower, 7.85
- CCCc1cccc(-c2cc(NC(=O)[C@@H]3CNC(=O)C3)nn2-c2ccccc2OC(C)C)c1 [Example 378] — 0.49 log units lower, 7.68
- COc1cc(-n2nc(NC(=O)[C@@H]3CNC(=O)C3)cc2-c2cccc(CO[C@H](C)C(F)(F)F)c2)ccc1F [Example 457] — 0.26 log units higher, 8.43
- COc1cc(F)cc(-n2nc(NC(=O)[C@@H]3CNC(=O)C3)cc2-c2cccc(OC(F)(F)F)c2)c1 [Example 524] — 0.60 log units lower, 7.57
- CCCOc1ccc(-n2nc(NC(=O)[C@@H]3CNC(=O)C3)cc2-c2cccc(CCC)c2)cc1 [Example 383] — 0.32 log units lower, 7.85
- C[C@@H](OCc1cc(F)cc(-c2cc(NC(=O)[C@@H]3CCC(=O)N3)nn2-c2ccccc2)c1)C(F)(F)F [Example 555] — 0.55 log units lower, 7.62
- COc1cc(-n2nc(NC(=O)[C@@H]3CNC(=O)C3)cc2-c2cccc(COCC(F)(F)F)c2)ccc1F [Example 416] — 0.35 log units lower, 7.82
- C[C@@H](OCc1cc(F)cc(-c2cc(NC(=O)[C@@H]3CNC(=O)C3)nn2-c2ccccc2Cl)c1)C(F)(F)F [Example 513] — 0.32 log units higher, 8.49
- CCOc1cccc(-n2nc(NC(=O)[C@@H]3CNC(=O)C3)cc2-c2cccc(COCC(F)(F)F)c2)c1F [Example 481] — within 0.2 log units, 8.06
- CC(C)CCOc1cccc(-c2cc(NC(=O)[C@@H]3CNC(=O)C3)nn2-c2ccccc2)c1 [Example 319] — 0.62 log units lower, 7.55
- CCOCc1cccc(-c2cc(NC(=O)[C@H]3CNC(=O)C3)nn2-c2ccccc2)c1 [Example 285] — 0.49 log units lower, 7.68
- COCCOc1cccc(-n2nc(NC(=O)[C@@H]3CNC(=O)C3)cc2-c2cccc(COCC(F)(F)F)c2)c1F [Example 483] — 0.94 log units lower, 7.23
- CCCc1cccc(-c2cc(NC(=O)C3CNC(=O)C3CC)nn2-c2ccccc2)c1 (single isomer, unassigned) [Example 307] — within 0.2 log units, 8.22
- CCCc1cccc(-c2cc(NC(=O)[C@@H]3CNC(=O)C3)nn2-c2ccc(OC(F)(F)F)cc2)c1 [Example 386] — 0.71 log units lower, 7.46
- CC(C)Oc1cc(F)cc(-n2nc(NC(=O)[C@@H]3CNC(=O)C3)cc2-c2cccc(COCC(F)(F)F)c2)c1 [Example 529] — 0.47 log units higher, 8.64
- CC[C@@H](C)OCc1cccc(-c2cc(NC(=O)[C@@H]3CNC(=O)C3)nn2-c2ccccc2)c1 [Example 350] — 0.57 log units lower, 7.60
- CCCc1cccc(-c2cc(NC(=O)[C@@H]3CNC(=O)C3)nn2-c2cccc(O)c2)c1 [Example 341] — 0.95 log units lower, 7.22
- C[C@@H](OCc1cc(Cl)cc(-c2cc(NC(=O)[C@@H]3CNC(=O)C3)nn2C2CCOCC2)c1)C(F)(F)F [Example 584] — 1.09 log units lower, 7.08
- CCCc1cccc(-c2cc(NC(=O)[C@@H]3CNC(=O)C3)nn2-c2cccc(C=C(C)C)c2)c1 [Example 493] — within 0.2 log units, 8.09
- O=C1C[C@H](C(=O)Nc2cc(-c3cc(Cl)cc(COC(C(F)(F)F)C(F)(F)F)c3)n(-c3ccccc3)n2)CN1 [Example 579] — 0.53 log units lower, 7.64
- CCCc1cccc(-c2cc(NC(=O)[C@@H]3CNC(=O)C3)nn2-c2cccc(CCC)c2)c1 [Example 497] — 0.31 log units higher, 8.48

Same assay, conditions: CHO-K1, at 0.1 uM

Point of comparison: `C[C@@H]1C[C@H](n2nc(NC(=O)[C@H]3CNC(=O)C3)cc2-c2cccc(OC(F)(F)F)c2)C[C@H](C)O1` [Example 219], inhibition at 0.1 µM 20%. Against it:
- O=C1COC(C(=O)Nc2cc(-c3cccc(OC(F)(F)F)c3)n(-c3ccccc3)n2)CN1 (stereo not drawn) [Example 276] — higher, 30%
- C[C@@H]1C[C@@H](n2nc(NC(=O)[C@H]3CNC(=O)C3)cc2-c2cccc(OC(F)(F)F)c2)C[C@H](C)O1 [Example 218] — higher, 26%
- O=C1C[C@H](C(=O)Nc2cc(-c3cccc(OC(F)(F)F)c3)n(-c3ccc(Cl)cc3)n2)CN1 [Example 507] — higher, 50%
- C[C@@H](OCc1cc(F)cc(-c2cc(NC(=O)[C@H]3CCC(=O)N3)nn2-c2ccccc2)c1)C(F)(F)F [Example 554] — higher, 32%

Same assay, conditions: CHO-K1, at 0.3 uM

Point of comparison: `O=C1C[C@@H](C(=O)Nc2cc(-c3cccc(OC(F)(F)F)c3)n(CC3CCOCC3)n2)CN1` [Example 199], inhibition at 0.3 µM 40%. Against it:
- C[C@H]1C(=O)NC[C@@H]1C(=O)Nc1cc(-c2cccc(OC(F)(F)F)c2)n(-c2ccc(Cl)c(F)c2)n1 [Example 180] — lower, -10%

Same assay, conditions: at 0.3 uM

For `CCCc1cccc(-c2cc(NC(=O)C3CCCC(=O)NC3)nn2-c2ccccc2)c1` (stereo not drawn) [Example 255], the “human SGLT1 % Inhibition” value was 7%.
